# Measurements published in US4591559A, “Antibiotic X-14934A and a method for its preparation” (Hoffmann-La Roche Inc., priority 1985, dated 1986).
# Tested on: E. Tenella
# Assay: Anti-coccidial activity against E. Tenella in chickens
# Type: in vivo
# Details: 75 PPM in feed
# Experimental: This test utilizes ten chickens per drug group. Ten chickens are employed as a weight control and ten chickens as an infected control. The drug is given 48 hours in advance of the infection. One gm. of the test drug is mixed in a mechanical mixer with a sufficient amount of chicken feed to result in the desired dosage. The infection consists of approximately 200,000 oocysts given orally by pipette. The tests lasts for eleven days and the surviving bids are autopsied and examined for gross lesions in the ceca. The test bids are rated according to the number of survivors and the number of cecal lesions. The results are expressed as average degree of infection (A.D.I.). An average degree of infection of less than 2.5 is considered to be significant.
structure (smiles),measurement,setting,value
CC[C@@H](C(=O)[C@@H](C)[C@@H](O)[C@H](C)CCc1ccc(C)c(O)c1C(=O)O)[C@H]1O[C@](CC)([C@H]2CC[C@](O)(CC)[C@H](C)O2)C[C@@H]1C [Lasalocid],Mort. %,,0%
same,Weight Gain %,,98%
same,Ave. Degree Infect.,<2.5 considered significant,0.0
